The Biogen ADME set (Fang et al. 2023)
≈ marks a conversion by molar mass, not a printed value.

Conditions: for aqueous solubility: pH 6.8

| SMILES | MDR1-MDCK efflux ratio | intrinsic clearance, human liver microsomes [mL/min/kg] | intrinsic clearance, rat liver microsomes [mL/min/kg] | aqueous solubility [µg/mL] | fraction unbound, human plasma | fraction unbound, rat plasma |
| --- | --- | --- | --- | --- | --- | --- |
| COc1cc(OC)cc(C(=O)NCc2noc(-c3ccccc3)n2)c1 | 0.335 | 34.9 | 628 | – | – | – |
| CC(C)(C)c1csc(CCNC(=O)N2CCSCC2)n1 | 1.14 | 127 | 956 | 69.1 (≈ 220 µM) | – | – |
| CC(C)c1cnn2c(NCc3ccccc3)cc(NCCCCCCN)nc12 | 41.3 | 7.76 | 210 | 50 (≈ 131 µM) | – | – |
| Cc1cc(F)ccc1C(=O)NCc1ccc(O)c(O)c1 | – | ≤ 4.74 | 83.9 | 40.5 (≈ 147 µM) | – | – |
| CC1(C)Cc2cc(NC(=O)c3cnn4cccnc34)c(N3CCN(CC(F)F)CC3)nc2O1 | 7.71 | 18.6 | 121 | 76.9 (≈ 168 µM) | – | – |
| Cc1nc2cc(=O)[nH]n2c(C)c1CC(=O)OC1CCCCC1 | 1.09 | 10.5 | 649 | – | – | – |
| COc1ccc(CN2CC(c3ccncc3)C2)cc1Cn1cccn1 | 6.36 | 10.8 | 397 | – | – | – |
| CC1CCN(CC(=O)Nc2nc(-c3c[nH]c4ccccc34)cs2)CC1 | 0.826 | 37.9 | 315 | 5.19 (≈ 14.6 µM) | – | – |
| COCC1(CNC(=O)c2ccc(-n3cccn3)cc2)CCC1 | 0.596 | 18.2 | 492 | – | – | – |
| Cc1nc(-c2cccnc2)sc1C(=O)Nc1ccccc1-c1cn2c(CN3CCOCC3)csc2n1 | 3.28 | – | – | 0.65 (≈ 1.26 µM) | – | – |
| Cc1ccc(C2=NC3(CCN(Cc4ccc(F)cc4)CC3)NC2=O)cc1 | 0.541 | 11.2 | 669 | 12.7 (≈ 36.2 µM) | – | – |
| O=C(c1cccc2ccccc12)N1CCCC(C(=O)N2CCc3ccccc3C2)C1 (centres undefined) | 5.83 | 696 | 4470 | 56.4 (≈ 142 µM) | – | – |
| CCc1c(C)nn(CCNC(=O)CCc2cnccn2)c1C | 23.4 | 64.5 | 647 | – | – | – |
| Cc1ccnc(C2CCN(C3CCCC3)CC2)n1 | 1.12 | ≤ 4.74 | 848 | 16.1 (≈ 65.5 µM) | – | – |
| Cc1cc(C)n2ncc(C(=O)NC3CCCCC3)c2n1 | 0.702 | 55.8 | 166 | 4.94 (≈ 18.1 µM) | – | – |
| Fc1cc(CCNc2ncnc3sccc23)c2c(c1)COCO2 | – | 218 | 2800 | – | – | – |
| CCc1noc(C2CCC(NCC3CCC(F)(F)CC3)CC2)n1 (centres undefined) | 2.98 | 54.4 | 240 | 75.9 (≈ 232 µM) | – | – |

| SMILES | MDR1-MDCK efflux ratio | intrinsic clearance, human liver microsomes [mL/min/kg] | intrinsic clearance, rat liver microsomes [mL/min/kg] | aqueous solubility [µg/mL] | fraction unbound, human plasma | fraction unbound, rat plasma |
| --- | --- | --- | --- | --- | --- | --- |
| Cc1ncc(CN2CC[C@@H](Nc3cncc(Cl)n3)[C@@H](C)C2)s1 | 0.974 | 75.6 | 637 | 52.8 (≈ 156 µM) | 0.16 | 0.184 |
| CCOc1cc(N2CCOC3(CCCC3)C2)ncn1 | 0.579 | 37.4 | 631 | – | – | – |
| COc1c(C)cnc(CN(C)S(N)(=O)=O)c1C | 1.91 | ≤ 4.74 | 82 | 30.6 (≈ 118 µM) | – | – |
| CSCC[C@@H](CO)n1ccnc1-c1oc2ccccc2c1C | 3.51 | 167 | 2000 | 73.2 (≈ 231 µM) | – | – |
| Cc1ccc(C(=O)NCCc2csc(C)n2)cn1 | 0.918 | 7.45 | 11.3 | 40.4 (≈ 155 µM) | – | – |
| COc1ccc(CCC(=O)N2CCCNCC2)cc1 | 2.76 | ≤ 4.74 | ≤ 10.7 | 35.7 (≈ 136 µM) | – | – |
| Clc1cc2ncc(-n3ccnc3)nc2cc1Cl | 0.485 | 16.8 | 134 | 2.96 (≈ 11.2 µM) | – | – |
| N#Cc1ccc(OCc2nnc(S)n2-c2ccccc2)cc1 | – | – | – | 45.7 (≈ 148 µM) | – | – |
| CC(=O)Nc1ccccc1OCCOc1ccc(Cl)cc1 | 0.373 | 95.8 | 665 | – | – | – |
| COc1ccc(-c2ccc(CN(CCN3CCOCC3)Cc3cccnc3)cc2)cc1 | 1.48 | 447 | 1580 | 63.2 (≈ 151 µM) | – | – |
| CCCc1cc(N2CCc3c(nc(C4CC4)n3C)C2)n2ncnc2n1 | 38.3 | 9.63 | 179 | 53.3 (≈ 158 µM) | 0.476 | 0.244 |
| CON(C)C(=O)c1cc2ccc(C(C)(C)C)cc2[nH]1 | 0.438 | 55 | 344 | 1.02 (≈ 3.92 µM) | – | – |
| c1ccc(-c2cc3c(N4CCC(c5ncc[nH]5)CC4)ncnc3s2)cc1 | 17.8 | 117 | 1550 | 4.15 (≈ 11.5 µM) | – | – |
| CNc1ncc2cc(-c3ccc(-c4cccc(C)n4)cc3Cl)c(=O)n(C[C@H]3OC[C@H](N)CO3)c2n1 | – | ≤ 4.74 | 170 | – | – | – |
| COC(=O)c1ccc(NC(=O)N(C)Cc2ccccc2CN2CCCC2)cc1 | 7.85 | 18.2 | 277 | 40.8 (≈ 107 µM) | – | – |
| c1ccc(-c2nsc(N3CCCN(c4nccs4)CC3)n2)cc1 | 0.656 | 145 | 1470 | 29.6 (≈ 86.2 µM) | – | – |
| Cc1c[nH]c(=O)n1-c1ccc(C(=O)Nc2ccc3ccccc3n2)cc1 | 10.2 | 8.88 | 49.4 | 5.9 (≈ 17.1 µM) | 0.0436 | – |

Next, values leading:

| MDR1-MDCK efflux ratio | intrinsic clearance, human liver microsomes [mL/min/kg] | intrinsic clearance, rat liver microsomes [mL/min/kg] | aqueous solubility [µg/mL] | fraction unbound, human plasma | fraction unbound, rat plasma | SMILES |
| --- | --- | --- | --- | --- | --- | --- |
| – | 256 | 203 | – | – | – | Cc1ccc(-c2cnc3ccccc3n2)cc1N |
| – | 91.7 | 589 | – | – | – | Cc1cc(C(F)(F)F)nc(N(C)Cc2c(C)noc2C)n1 |
| 0.624 | 16.5 | 76.5 | – | – | – | COc1ccc(CC(=O)Nc2ccc(F)nc2)cc1 |
| – | – | – | 0.3 (≈ 0.535 µM) | – | – | CC(C)(C)c1cc(NC(=O)Nc2ccc(-c3cn4c(n3)sc3cc(OCCN5CCOCC5)ccc34)cc2)no1 |
| – | 22 | 356 | – | – | – | COc1ccccc1N1CCN(CCNC(=O)c2ccc(F)cc2)CC1 |
| 0.622 | 66 | 316 | – | – | – | CC(=O)c1cc(Br)cc(F)c1OCc1ccccn1 |
| 4.93 | 133 | 349 | – | – | – | C[C@H]1CC[C@H](n2c3cnccc3c3cnc(Nc4ccc5c(n4)CCN(C(=O)CO)C5)nc32)CC1 |
| – | 130 | 271 | 1.2 (≈ 3.72 µM) | – | – | CC(=O)N1CCc2cc(Nc3nccc(C(F)(F)F)n3)ccc21 |
| 1.76 | ≤ 4.74 | 12.4 | – | – | – | O=C(O)c1ccccc1COc1cccc2cccnc12 |
| 3.73 | 155 | 1510 | 30.2 (≈ 79.9 µM) | – | – | Cc1ccc(CNC(=O)CN2CCC(n3nnc4cc(C)ccc43)CC2)cc1 |
| 0.51 | 22.6 | 278 | – | – | – | Cc1cccc(NC(=O)CSc2nncs2)c1 |
| 26.7 | 5.43 | 98.6 | – | 0.439 | 0.429 | Cc1cc(Nc2cnccn2)cc(C2CCCN(CC(=O)N3CCCC3)C2)n1 (centres undefined) |
| 0.747 | 5.81 | 127 | 42.5 (≈ 122 µM) | – | – | O=C(c1ccc(-n2cccn2)nc1)N1CCN(c2ccccc2O)CC1 |
| 8.32 | 64.4 | 456 | – | – | – | Cc1cc(Nc2ncccn2)cc(C2CCCN(CC(=O)Nc3ccc(F)cc3)C2)n1 (centres undefined) |
| 0.804 | 125 | 804 | 1.09 (≈ 2.84 µM) | – | – | Cc1cc(C)c(C#N)c(N2CCN(CC(=O)Nc3ccccc3Cl)CC2)n1 |
| – | – | – | 30.7 (≈ 150 µM) | – | – | O=C(NCC(F)(F)F)c1ccncc1 |
| 0.38 | 14.5 | 343 | – | – | – | O=C(Nc1ccc2[nH]ncc2c1)[C@H]1CCCNC1 |
| – | 34.1 | 209 | – | – | – | Cc1cnc(Nc2ccc(OCCN3CCCC3)cc2)nc1Nc1cccc(S(=O)(=O)NC(C)(C)C)c1 |
| 0.833 | – | – | 0.16 (≈ 0.551 µM) | – | – | Cc1ccc2c(c1)c1nc3ccccc3nc1n2CC(N)=O |
| 13.6 | 4.86 | 34.6 | 1.15 (≈ 3.28 µM) | – | – | CCc1ccc(NC(=O)C2CCN(c3ccc4nncn4n3)CC2)cc1 |
| 1.02 | 33.8 | 279 | 3.7 (≈ 9.78 µM) | – | – | O=C(Nc1nc2c(s1)COc1ccccc1-2)c1cnc(Cl)c(Cl)c1 |
| 2.74 | 22.2 | 134 | 61.8 (≈ 220 µM) | – | – | CN(C(=O)c1cncc(F)c1)c1cccc2ncccc12 |
